According to ChEMBL document CHEMBL5614382, “Discovery of a new 1-(phenylsulfonyl)-1H-indole derivative targeting the EphA2 receptor with antiproliferative activity on U251 glioblastoma cell line” (Eur J Med Chem, 2024):

Columns and labels:
[1] = target: Ephrin type-A receptor 4 (Mus musculus, UniProt Q03137); experiment: Displacement of biotinylated Fc-tagged ephrin-A1 from recombinant N/C-terminal 6-his tagged mouse EphA4 (Val20 to Thr547 residues) preincubated for 1 hr followed by ephrin-A1-Fc addition and measured after 4 to 5 hrs by ELISA assay
[2] = target: Ephrin type-A receptor 5 (Rattus norvegicus, UniProt P54757); experiment: Displacement of biotinylated Fc-tagged ephrin-A1 from recombinant N/C-terminal 6-his tagged rat EphA5 (Ser 58 to Gln573 residues) preincubated for 1 hr followed by ephrin-A1-Fc addition and measured after 4 to 5 hrs by ELISA assay
[3] = target: Ephrin type-A receptor 7 (Mus musculus, UniProt Q61772); experiment: Displacement of biotinylated Fc-tagged ephrin-A1 from recombinant N/C-terminal 6-his tagged mouse EphA7 (Ala30 to Pro549 residues) preincubated for 1 hr followed by ephrin-A1-Fc addition and measured after 4 to 5 hrs by ELISA assay
[4] = target: T1, Ephrin type-A receptor 8 (Mus musculus, UniProt O09127); experiment: Displacement of biotinylated Fc-tagged ephrin-A1 from recombinant N/C-terminal 6-his tagged mouse EphA8 (Gly27 to Arg540 residues) preincubated for 1 hr followed by ephrin-A1-Fc addition and measured after 4 to 5 hrs by ELISA assay
T1 sequence (O09127 whole entry): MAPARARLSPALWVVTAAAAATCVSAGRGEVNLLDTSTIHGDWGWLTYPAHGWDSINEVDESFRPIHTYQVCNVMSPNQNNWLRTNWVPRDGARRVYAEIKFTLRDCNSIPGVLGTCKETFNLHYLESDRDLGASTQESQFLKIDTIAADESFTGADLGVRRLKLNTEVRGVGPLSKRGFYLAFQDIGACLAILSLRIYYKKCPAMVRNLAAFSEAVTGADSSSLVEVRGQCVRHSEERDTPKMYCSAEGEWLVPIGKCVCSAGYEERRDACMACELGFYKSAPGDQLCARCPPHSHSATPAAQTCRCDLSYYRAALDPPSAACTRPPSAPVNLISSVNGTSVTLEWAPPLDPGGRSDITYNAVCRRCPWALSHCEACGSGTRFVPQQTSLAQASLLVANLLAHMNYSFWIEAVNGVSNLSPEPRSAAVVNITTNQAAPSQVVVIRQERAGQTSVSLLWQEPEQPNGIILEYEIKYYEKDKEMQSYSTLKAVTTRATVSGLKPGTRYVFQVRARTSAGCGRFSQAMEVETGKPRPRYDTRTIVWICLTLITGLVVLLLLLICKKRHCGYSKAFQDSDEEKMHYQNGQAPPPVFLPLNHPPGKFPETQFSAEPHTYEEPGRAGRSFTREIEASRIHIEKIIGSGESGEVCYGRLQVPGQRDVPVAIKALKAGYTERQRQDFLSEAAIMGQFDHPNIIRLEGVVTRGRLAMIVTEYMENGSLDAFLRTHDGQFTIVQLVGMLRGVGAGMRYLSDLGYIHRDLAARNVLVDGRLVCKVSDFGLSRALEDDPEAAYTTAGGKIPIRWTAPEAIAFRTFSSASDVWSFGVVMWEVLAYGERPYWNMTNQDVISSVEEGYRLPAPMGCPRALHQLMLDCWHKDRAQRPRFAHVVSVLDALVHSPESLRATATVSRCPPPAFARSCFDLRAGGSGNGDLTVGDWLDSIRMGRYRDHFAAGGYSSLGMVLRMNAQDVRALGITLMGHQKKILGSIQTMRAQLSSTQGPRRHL

[5] = target: T2, Ephrin type-B receptor 3 (Mus musculus, UniProt P54754); experiment: Displacement of biotinylated Fc-tagged ephrin-B1 from recombinant mouse EphB3 (Leu 30 to Thru537 residues) preincubated for 1 hr followed by ephrin-B1-Fc addition and measured after 4 to 5 hrs by ELISA assay
T2 sequence (P54754 whole entry): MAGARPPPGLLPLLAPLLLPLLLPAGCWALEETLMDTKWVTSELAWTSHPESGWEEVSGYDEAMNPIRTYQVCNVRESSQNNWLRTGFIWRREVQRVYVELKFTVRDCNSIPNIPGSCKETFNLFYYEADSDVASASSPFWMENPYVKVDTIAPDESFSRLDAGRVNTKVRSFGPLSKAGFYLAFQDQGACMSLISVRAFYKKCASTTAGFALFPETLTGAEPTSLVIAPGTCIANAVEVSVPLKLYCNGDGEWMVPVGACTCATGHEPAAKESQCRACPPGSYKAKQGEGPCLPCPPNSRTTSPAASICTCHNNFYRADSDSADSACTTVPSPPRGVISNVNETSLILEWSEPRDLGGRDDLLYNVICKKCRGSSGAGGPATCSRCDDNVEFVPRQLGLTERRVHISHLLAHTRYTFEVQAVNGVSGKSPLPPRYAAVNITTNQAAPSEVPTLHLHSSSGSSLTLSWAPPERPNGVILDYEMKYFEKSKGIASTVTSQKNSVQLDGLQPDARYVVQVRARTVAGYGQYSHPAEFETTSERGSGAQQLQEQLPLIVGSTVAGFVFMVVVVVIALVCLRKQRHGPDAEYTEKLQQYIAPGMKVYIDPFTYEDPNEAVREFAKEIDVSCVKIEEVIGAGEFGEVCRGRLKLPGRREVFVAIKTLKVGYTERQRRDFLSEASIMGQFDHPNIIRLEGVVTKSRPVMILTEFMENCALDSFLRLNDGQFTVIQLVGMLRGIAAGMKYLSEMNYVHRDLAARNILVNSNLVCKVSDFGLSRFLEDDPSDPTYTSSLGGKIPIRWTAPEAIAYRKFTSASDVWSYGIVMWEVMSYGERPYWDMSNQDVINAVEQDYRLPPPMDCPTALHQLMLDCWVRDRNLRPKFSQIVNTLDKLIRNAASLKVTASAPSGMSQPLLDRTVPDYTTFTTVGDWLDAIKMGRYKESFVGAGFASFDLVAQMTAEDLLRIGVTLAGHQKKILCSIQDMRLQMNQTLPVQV

Chain of Ephrin type-A receptor 7 (Q61772 whole entry): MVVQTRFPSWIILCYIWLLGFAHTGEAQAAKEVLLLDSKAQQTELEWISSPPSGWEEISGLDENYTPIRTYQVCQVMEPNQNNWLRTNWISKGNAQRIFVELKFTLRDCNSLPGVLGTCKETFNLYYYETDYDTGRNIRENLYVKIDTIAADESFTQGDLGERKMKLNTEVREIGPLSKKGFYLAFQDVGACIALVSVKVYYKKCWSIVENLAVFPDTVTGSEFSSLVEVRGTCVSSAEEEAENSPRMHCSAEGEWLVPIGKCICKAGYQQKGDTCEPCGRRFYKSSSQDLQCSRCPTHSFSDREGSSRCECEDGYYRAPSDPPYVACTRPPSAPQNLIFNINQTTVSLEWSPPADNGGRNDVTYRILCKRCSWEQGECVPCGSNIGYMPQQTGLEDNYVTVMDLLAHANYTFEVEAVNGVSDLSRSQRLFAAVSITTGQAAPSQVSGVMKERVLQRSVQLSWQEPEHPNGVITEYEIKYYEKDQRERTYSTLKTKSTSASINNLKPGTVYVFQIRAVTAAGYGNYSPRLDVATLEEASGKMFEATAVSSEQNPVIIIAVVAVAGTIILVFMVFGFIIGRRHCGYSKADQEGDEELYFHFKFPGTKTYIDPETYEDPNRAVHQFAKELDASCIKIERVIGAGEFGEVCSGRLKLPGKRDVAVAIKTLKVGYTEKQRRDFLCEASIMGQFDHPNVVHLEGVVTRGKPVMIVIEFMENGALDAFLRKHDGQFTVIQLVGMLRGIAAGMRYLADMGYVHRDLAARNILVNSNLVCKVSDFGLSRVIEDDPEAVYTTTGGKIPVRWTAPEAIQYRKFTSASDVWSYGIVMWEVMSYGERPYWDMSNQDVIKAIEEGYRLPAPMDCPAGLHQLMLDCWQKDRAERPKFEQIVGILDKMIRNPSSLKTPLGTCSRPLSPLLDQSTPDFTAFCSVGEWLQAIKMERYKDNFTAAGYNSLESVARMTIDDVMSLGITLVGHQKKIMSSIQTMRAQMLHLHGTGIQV
Chain of Ephrin type-A receptor 4 (Q03137 whole entry): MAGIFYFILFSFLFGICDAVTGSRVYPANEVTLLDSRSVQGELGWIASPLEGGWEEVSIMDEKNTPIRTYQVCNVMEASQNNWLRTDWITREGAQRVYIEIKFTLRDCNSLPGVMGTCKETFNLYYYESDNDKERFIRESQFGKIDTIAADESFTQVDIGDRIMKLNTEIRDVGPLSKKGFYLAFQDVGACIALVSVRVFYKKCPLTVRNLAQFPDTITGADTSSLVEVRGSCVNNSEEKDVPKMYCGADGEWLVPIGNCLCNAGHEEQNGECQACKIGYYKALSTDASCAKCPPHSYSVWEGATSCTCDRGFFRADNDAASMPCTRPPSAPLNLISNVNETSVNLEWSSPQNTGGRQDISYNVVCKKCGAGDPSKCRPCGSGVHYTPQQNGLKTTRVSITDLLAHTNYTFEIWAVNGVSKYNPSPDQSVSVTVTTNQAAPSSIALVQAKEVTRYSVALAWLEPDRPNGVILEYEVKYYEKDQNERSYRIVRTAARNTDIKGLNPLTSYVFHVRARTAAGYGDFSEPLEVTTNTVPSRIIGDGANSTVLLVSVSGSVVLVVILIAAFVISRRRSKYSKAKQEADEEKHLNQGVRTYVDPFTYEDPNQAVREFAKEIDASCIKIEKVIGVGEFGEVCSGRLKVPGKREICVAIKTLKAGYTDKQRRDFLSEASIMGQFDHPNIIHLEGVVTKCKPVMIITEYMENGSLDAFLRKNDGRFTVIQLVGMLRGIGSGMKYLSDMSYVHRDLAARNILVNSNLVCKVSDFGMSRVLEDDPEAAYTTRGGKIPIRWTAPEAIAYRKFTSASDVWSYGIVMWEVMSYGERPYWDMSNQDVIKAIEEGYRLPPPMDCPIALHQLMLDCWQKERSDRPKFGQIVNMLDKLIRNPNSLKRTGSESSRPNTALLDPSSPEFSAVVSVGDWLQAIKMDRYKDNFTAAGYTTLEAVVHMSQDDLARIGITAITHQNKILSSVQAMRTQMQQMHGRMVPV
Chain of Ephrin type-A receptor 5 (P54757 whole entry): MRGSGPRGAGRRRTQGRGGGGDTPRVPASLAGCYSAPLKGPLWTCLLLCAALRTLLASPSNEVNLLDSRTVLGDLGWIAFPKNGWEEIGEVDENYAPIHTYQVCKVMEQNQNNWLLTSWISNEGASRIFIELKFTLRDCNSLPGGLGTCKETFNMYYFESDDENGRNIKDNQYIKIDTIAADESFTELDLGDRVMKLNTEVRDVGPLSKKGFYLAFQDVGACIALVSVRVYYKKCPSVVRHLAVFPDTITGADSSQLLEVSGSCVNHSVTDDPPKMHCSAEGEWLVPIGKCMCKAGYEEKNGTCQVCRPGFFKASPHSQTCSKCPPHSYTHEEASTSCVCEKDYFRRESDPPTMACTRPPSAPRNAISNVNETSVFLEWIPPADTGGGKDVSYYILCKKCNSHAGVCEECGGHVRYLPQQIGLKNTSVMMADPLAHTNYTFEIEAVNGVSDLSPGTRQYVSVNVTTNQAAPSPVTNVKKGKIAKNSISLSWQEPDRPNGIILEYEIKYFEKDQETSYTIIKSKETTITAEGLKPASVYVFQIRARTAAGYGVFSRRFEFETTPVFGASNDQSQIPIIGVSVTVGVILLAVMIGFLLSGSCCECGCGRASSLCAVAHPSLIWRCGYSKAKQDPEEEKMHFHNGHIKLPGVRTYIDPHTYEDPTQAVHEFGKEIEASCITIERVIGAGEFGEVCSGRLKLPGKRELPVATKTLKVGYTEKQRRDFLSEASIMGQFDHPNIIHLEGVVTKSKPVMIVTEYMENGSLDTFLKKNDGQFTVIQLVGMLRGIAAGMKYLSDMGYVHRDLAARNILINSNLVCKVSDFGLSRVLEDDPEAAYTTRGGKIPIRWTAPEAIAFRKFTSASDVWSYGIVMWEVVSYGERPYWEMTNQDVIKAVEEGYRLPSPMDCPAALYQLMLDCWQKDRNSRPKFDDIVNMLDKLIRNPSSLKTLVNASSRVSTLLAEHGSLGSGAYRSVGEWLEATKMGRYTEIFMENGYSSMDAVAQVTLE

C[C@H](CCC(=O)N[C@H](CC(=O)O)Cc1c[nH]c2ccccc12)[C@H]1CC[C@H]2[C@@H]3CC=C4C[C@@H](O)CC[C@]4(C)[C@H]3CC[C@]12C
IC50 [1]: 2.8 µM | IC50 [2]: 3 µM | IC50 [3]: 4.5 µM | IC50 [4]: 1.8 µM | IC50 [5]: 9.8 µM

C[C@H](CCC(=O)N[C@H](CC(=O)O)Cc1cn(S(=O)(=O)c2ccc(C(F)(F)F)cc2)c2ccccc12)[C@H]1CC[C@H]2[C@@H]3CC=C4C[C@@H](O)CC[C@]4(C)[C@H]3CC[C@]12C
IC50 [1]: 4.2 µM | IC50 [2]: 9.3 µM | IC50 [3]: 15 µM | IC50 [4]: 13 µM | IC50 [5]: > 30 µM

C[C@H](CCC(=O)N[C@H](CC(=O)O)Cc1cn(S(=O)(=O)c2ccccc2)c2ccccc12)[C@H]1CC[C@H]2[C@@H]3CC=C4C[C@@H](O)CC[C@]4(C)[C@H]3CC[C@]12C
IC50 [1]: 6.3 µM | IC50 [2]: 10 µM | IC50 [3]: 22 µM | IC50 [4]: 5.5 µM | IC50 [5]: > 30 µM
